# From patent publication US20210137126A1, “USE OF PEPTIDES AS IN[…]” (INSTITUT NATIONAL DES SCIENCES APPLIQUEES DE LYON, priority 2018, published 2021)
# Test system: pea aphid Acyrthosiphon pisum
# Assay: Insecticide test: ingestion of the peptide in artificial medium by pea aphid larvae, mortality monitored over 7 days
# Format: in vivo
# Conditions: for TL50 (lethal time at which mortality of individuals is 50%): survival analysis, normal logarithmic adjustment
# Description: The experiments were carried out on aphids from the parthenogenetic clone of the pea aphid LL01 which contained only the primary symbiont B. aphidicola. The aphids were bred and kept on feva bean plants (Vicia faba L., Aquadulce variety) under climate-controlled conditions (temperature 21±1° C., relative humidity 70%, photoperiod of 16 h), in order to obtain aphids which reproduced solely by viviparous parthenogenesis. In order to reduce the variability linked to the use of individuals at different stages of development, the aphids were obtained from a synchronized brood. For this, adult aphids that were ready to lay were placed on feva bean plants. […] The manipulation was carried out with a negative control composed solely of artificial medium and a positive control representing one of the concentrations of the range being studied with the aphids. The range being studied comprised different media containing the BCR4 peptide studied at various concentrations which varied from 5 to 80 μM. The experiments were carried out on thirty larvae per condition divided into three distinct groups of ten individuals.
# All of the data regarding the mortality of the aphids were analyzed statistically by standard survival processing. All of the BCR4 concentrations were analyzed separately in a parametric survival analysis with a normal logarithmic adjustment.
# The measurement of the insecticidal activity of BCR4 was carried out by incorporating increasing doses of peptides into the nutrient medium for the aphids and monitoring of their mortality was carried out over 7 days.
sequence,measurement,setting,value
"DFDPTEFKGPFPTIEICSKYCAVVCNYTSRPCYCVEAAKERDQWFPYCYD (listed as Acyrthosiphon pisum) [BCR4, Bacteriocyte Cysteine Rich peptide of Acyrthosiphon pisum]",TL50 (lethal time at which mortality of individuals is 50%),BCR4 concentration 5 μM in artificial medium,>20 days
same,TL50 (lethal time at which mortality of individuals is 50%),BCR4 concentration 10 μM in artificial medium,11.3 days
same,TL50 (lethal time at which mortality of individuals is 50%),BCR4 concentration 20 μM in artificial medium,3.48 days
same,TL50 (lethal time at which mortality of individuals is 50%),BCR4 concentration 27.5 μM in artificial medium,3.24 days
same,TL50 (lethal time at which mortality of individuals is 50%),BCR4 concentration 35 μM in artificial medium,1.94 days
same,TL50 (lethal time at which mortality of individuals is 50%),BCR4 concentration 40 μM in artificial medium,1.76 days
same,TL50 (lethal time at which mortality of individuals is 50%),BCR4 concentration 80 μM in artificial medium,1.16 days
same,mortality at onset of the dose-response effect,from the first day following ingestion,high mortality
same,dose-response over the survival time for the aphids,"increasing doses 5 to 80 μM, mortality monitored over 7 days",very significant dose-response
same,range of activity (insecticidal),"pea aphid, peptide in nutrient medium",5 to 80 µM
